Legend:
[1] = tested on: pyruvate carboxylase (PC); experiment: Stable isotope tracing in NIH-3T3 cells (surrogate for PC activity); type: cell-based, mouse
Protocol: Cells were plated in six-well cell culture plates at a concentration aimed to reach 0.5-1×10^6 cells at the time of harvest. For quantification of relative metabolite abundance, cells were cultured with glutamine-free DMEM containing different concentrations of L-glutamine and supplemented with 10% dialyzed FBS and in some experiments were treated with TGFβ for 48 hours. For the [U-^13C]and [3,4-^13C]glucose tracing experiments, cells were cultured as above, and in the last 8 hours media was replaced with DMEM without D-glucose and L-glutamine supplemented with 2 mM or 0.2 mM L-glutamine and 10 mM [U-^13C]or [3,4-^13C]D-glucose (Cambridge Isotope Laboratories) and 10% dialyzed FBS. For the [U-^13C]and [1-^13C]lactate tracing experiments, cells were cultured in 2 or 0.2 mM L-glutamine, 10 or 1 mM D-glucose in the presence or absence of 10 mM sodium lactate, and in the last 8 hours media was replaced with DMEM without D-glucose and L-glutamine supplemented with 2 mM or 0.2 mM L-glutamine, 10 or 1 mM D-glucose, 10 mM [U-^13C]or [1-^13C]sodium lactate (Cambridge Isotope Laboratories) and 10% dialyzed FBS. For relative quantification of metabolites by gas chromatography-mass spectroscopy (GC-MS), cells were washed briefly with PBS, which was then fully aspirated and metabolism was quenched by immediately adding 1 mL of 80:20 methanol:water stored at −80° C. containing 20 μM deuterated 2-hydroxyglutarate (d5-2HG) as an internal standard. For stable isotope tracing experiments, metabolism was quenched without the PBS washing step by adding 1 mL of 80:20 methanol:water as above. After overnight incubation at −80° C., the resulting extracts were scraped on dry ice, transferred into a 1.5 mL centrifuge tube, and centrifuged at 20,000 g for 20 minutes at 4° C. The supernatants were collected in clean tubes and dried in a vacuum evaporator (Genevac EZ-2 Elite) for 2 hours.
For [U-^13C]glucose tracing into proteinogenic amino acids, cells were cultured in 10% Gln in the presence or absence of TGFβ for 48 hours. In the last 24 hours, the media including all treatments was replaced with DMEM without L-glutamine and D-glucose and supplemented with 0.2 mM L-glutamine and 10 mM [U-^13C]D-glucose (Cambridge Isotope Laboratories) and 10% dialyzed FBS. For [U-^13C]lactate tracing into ECM, confluent cells were cultured in 10% Gln in the presence of 10 mM [U-^13C]sodium lactate for 6 days. The media was replaced every other day. ECM was decellularized as described above. Cells and ECM were washed with PBS, and proteins were precipitated with methanol:chloroform:water (1:1:1). The interphase was washed with methanol, and the dried pellet was subjected to acid hydrolysis with 6 N hydrochloric acid (HCl) and incubation at 95° C. for 16 hours. Samples were cooled to room temperature and centrifuged at 20,000 g for 10 minutes. The cleared supernatant was dried in a vacuum evaporator (Genevac EZ-2 Elite) for 2 hours, and abundance of aspartate, glutamate/glutamine or hydroxyproline isotopologues was measured by GC-MS as described below.
GC-MS measurements were performed as described before^11. Ions used for quantification of metabolite levels were as follows: d5-2HG m/z 354; citrate m/z 465; alpha-ketoglutarate m/z 304; succinate m/z 247; fumarate m/z 245; malate m/z 335; aspartate m/z 232; hydroxyproline m/z 332; proline m/z 216; glutamate m/z 246; glutamine m/z 245; lactate m/z 219; pyruvate m/z 174. All peaks were manually inspected and verified relative to known spectra for each metabolite. Peak identification and integration were done with MassHunter software vB.09 (Agilent Technologies). For relative quantification of cell samples, integrated peak areas were normalized to the internal standard d5-2HG and to the packed cell volume of each sample. Absolute quantification of hydroxyproline in tumor acid hydrolysates was performed against a standard curve of commercial trans-4-hydroxy-L-proline (Sigma). […]

[2] = tested on: mammary fibroblasts (MFBs); experiment: Growth experiments, MFBs; type: cell-based, mouse; settings: 20% Gln, TGFβ
From the text: NIH-3T3 cells were obtained from ATCC (CRL-1658); 293 T cells were obtained from ATCC (CRL-3216). PSCs were isolated from C57BL/6 mice by differential centrifugation as previously described^49 and their mesenchymal origin was validated by analyzing the expression of various mesenchymal and epithelial markers. MFBs were isolated from FVB/N mice by differential centrifugation as previously described^50. DB7 mouse breast cancer cells were obtained from Alexander Borowsky (University of California Davis Comprehensive Cancer Center, Sacramento, CA, USA) through an MTA to Ohio State University (OSU). KPC (Kras^LSL-G12D; Trp53^LSL-R172H; Pdx1-Cre) mouse PDAC cells were a gift from Scott Lowe (Memorial Sloan Kettering Cancer Center. (MSKCC)). […]
A total of 0.2×10^5 cells/well were plated in 24-well culture plates and media was changed and treatments started 5-6 hours later. Cell numbers at the start of treatment (day 0 “d 0”) and 1, 2 and 3 days later were counted using the Multisizer 4e (Beckman) and normalized to the cell number at d 0. In co-culture assays, a fraction of the cell population was analyzed by flow cytometry for GFP expression, and the rest counted with the Multisizer 4e. The number of KPC-GFP cells was determined by multiplying the fraction of GFP+ cells with the total number of cells.

TGFβ: transforming growth-factor beta; TGFβ-1 purchased from Peprotech
m+3 labelling of aspartate and glutamate/glutamine incorporated into cellular protein ([1]; 10% Gln, TGFβ 48 hours (FIG. 10I)): reduced | m+2 labelling of citrate, indicative of PDH activity ([1]; TGFβ 48 hours (FIG. 3E)): increased | m+3 and/or m+5 labelling of the metabolites analysed from [U-13C]Glc ([1]; high and low Gln medium, TGFβ 48 hours (FIG. 3E)): reduced | low-Gln increase of m+1 labelling of aspartate, malate and citrate from [3,4-13C]Glc (PC activity) ([1]; low Gln, TGFβ 48 hours (FIGS. 3G and 3H)): suppressed | cell proliferation [2]: unable to proliferate

Reference: patent US20260152533A1, “COMBINATION INHIBITORS FOR TREATING FIBROSIS” (Memorial Sloan-Kettering Cancer Center, priority 2021, published 2026)
